# Laboratory results: patent US11033535B2, “Oxadiazoles and thiadiazoles as TGF-β inhibitors” (Southern Research Institute, priority 2017, dated 2021)
# Experiments:
# [1] = system: BLM induced lung fibrosis; experiment: BLM induced unilateral lung fibrosis model; type: in vivo, SD rats; set-up: left lung bronchial and arteriole damages (score), In the fibrosis core (n = 6) / left lung bronchial and arteriole damages (score), In the border of fibrosis (n = 6): scale not given here; conditions: for body weight, Changes in the ratio (%) / body weight: 10 mg/kg/d ip (n = 6); for body weight: in g (unit assumed)
# Protocol: Species and quality level: SD rats, SPF grade; Gender and number: male, 12; Purchasing body weight range: 260-280 g; Company Certificate No.: SCXX (zhe) 2018-0001, Zhejiang Vital River Laboratory Animal Technology Co., Ltd.
# Model Establishment: This study was carried out in strict accordance with the SOP institutional guidelines for the care and use of laboratory animals. Rats were anesthetized by intraperitoneal injection of pentobarbital sodium at dose of 50 mg/kg. Then rat neck skin was disinfected and opened in layers. The trachea was exposed carefully. Bleomycin (BLM) was directly injected into left main bronchus at a dose of 3 mg/kg body weight in volume of 1.0 ml/kg via a cannula. After closing the trachea and skin in layers the animal was moved on an electric heat pad at 37° C. to wait waking up from anesthesia before returning to holding cages with free access to water and diet.
# Rats were assigned into two groups: Model (Group-1, n=6), CPD-X (Group-2, 10 mg/kg/d, n=6) (Table 13).
# a Test article, CPD-X was designed as an intraperitoneal injection once a day starting from day-8 of modeling for 14 days (Table 13). The saline as a vehicle for model group via a ip injection once a day for 14 days.
# One day after the last dosing all animals were euthanized according to the standard SOP at KCl. After confirming the animal death the left lung BALF was collected according the standard SOP at KCl. The BALF was frozen in liquid nitrogen and stored at −80° C. The left lungs then were perfused with equal volume of 10% formaldehyde solution (3 mL for each lung).
# Lung pathology was processed after lung fixation. All animal hearts were collected at same time, weighted, and fixed in 10% formaldehyde solution for histology examination.
# The whole left lung was dehydrated and wax embedded following KCl pathology SOP, then sectioned at […] in thickness. HE and Masson Trichrome staining were processed following KCl pathology standard staining SOPs, whole slides were then scanned by Hamamatsu NanoZoomer Digital Pathology S210 slide scanner after staining. Bronchiole and pulmonary arteriole damage and inflammatory cell infiltration in fibrosis core and fibrotic board area were scored with H&E stained slides (Table 14 and Table 15, FIG. 8), for which 5 different areas were selected in each lung slide. BLM induced left lung injury area and Ashcraft scoring for fibrosis were evaluated with Masson Trichrome stained slides (Table 16 and FIG. 9), for which 10 different areas were selected in each lung slide.
# The animal hearts were dehydrated and wax embedded following KCl pathology SOP, then sectioned at […] in thickness. HE staining was processed following KCl pathology standard staining SOPs, whole slides were then scanned by Hamamatsu NanoZoomer Digital Pathology S210 slide scanner after staining. The thickness of left ventricle wall (LV), septum and right ventricle wall (RV) were measured at five different points and calculated the average thickness of LV, septum and RV.
# a Statistical analysis was performed using Graphpad prism 6.0 software. Descriptive results were expressed as mean±sem or mean±sd. Statistical comparisons were performed using t-test, two-way ANOVA analysis. The p value <0.05 was considered as statistically significant.
# [2] = system: BLM induced lung fibrosis; experiment: BLM induced unilateral lung fibrosis model; type: in vivo, SD rats; conditions: 10 mg/kg/d ip (n = 6), day 77
# [3] = 10 mg/kg ip QD 14 days from day-8, p < 0.05 vs. model
smiles,measurement,setting,value
CC(=O)NC(Cc1ccc(CN)cc1)c1nnc(-c2cccc(OC(F)(F)F)c2)s1 (stereo not drawn) [CPD-X],body weight recovery vs. model group,[1],significant difference in body recovery
same,fibrosis by Ashcraft scoring,[1],significant reduction in fibrosis
same,share of fibrosis score ≤3,[1],about 80%
same,"left lung bronchial and arteriole damages (score), In the fibrosis core (n = 6)","[1]; 10 mg/kg ip QD 14 days from day-8, H&E, p < 0.001 vs. model",6.23 ± 0.67
same,"left lung bronchial and arteriole damages (score), In the border of fibrosis (n = 6)","[1]; 10 mg/kg ip QD 14 days from day-8, H&E, p < 0.01 vs. model",4.8 ± 0.54
same,Lang damage area (%),"[1]; 10 mg/kg ip QD 14 days from day-8, Masson Trichrome, left lung",70.69 ± 10.66%
same,Ashcraft fibrosis score,"[1]; 10 mg/kg ip QD 14 days from day-8, Masson Trichrome, p < 0.01 vs. model",2.55 ± 0.29
same,% of fibrosis score (≤3),[1]; [3],90 ± 10.95 %
same,% of fibrosis score (≥4),[1]; [3],10 ± 10.95 %
same,"body weight, Changes in the ratio (%)",[1]; day 0,0%
same,body weight,[1]; day 0,286.0 ± 6.1
same,"body weight, Changes in the ratio (%)",[1]; day 2,−9.6 ± 3.6%
same,body weight,[1]; day 2,258.7 ± 13.4
same,"body weight, Changes in the ratio (%)",[1]; day 5,−8.3 ± 6.7%
same,body weight,[1]; day 5,262.4 ± 22.6
same,"body weight, Changes in the ratio (%)",[1]; day 7,−4.4 ± 7.6%
same,body weight,[1]; day 7,273.6 ± 24.9
same,"body weight, Changes in the ratio (%)",[1]; day 9,−0.8 ± 7.5%
same,body weight,[1]; day 9,283.9 ± 24.5
same,"body weight, Changes in the ratio (%)",[1]; day 11,2.8 ± 7.0%
same,body weight,[1]; day 11,294.1 ± 23.5
same,"body weight, Changes in the ratio (%)",[1]; day 13,5.5 ± 6.4%
same,body weight,[1]; day 13,302.0 ± 22.0
same,"body weight, Changes in the ratio (%)",[1]; day 15,8.2 ± 6.1%
same,body weight,[1]; day 15,309.0 ± 20.4
same,"body weight, Changes in the ratio (%)",[1]; day 17,13.7 ± 6.4%
same,body weight,[1]; day 17,325.3 ± 21.2
same,"body weight, Changes in the ratio (%)",[1]; day 19,14.4 ± 5.9%
same,body weight,[1]; day 19,327.3 ± 20.7
same,"body weight, Changes in the ratio (%)",[1]; day 21,18.4 ± 5.3%
same,body weight,[1]; day 21,338.9 ± 19.4
same,therapeutic effect (summary),[1]; ip from day-8 of modeling for 14 days,significant improvement in bronchial and arteriole damage and alveolar fibrosis
same,right ventricle wall thickness,[1]; no statistic difference as compared to model group,slightly limited the right ventricle wall thickness
same,bronchial and arteriole damages in fibrotic core and border of fibrosis,[1]; p<0.001,significant therapeutic effect on reduction of bronchial and arteriole damages
same,"body weight, Changes in the ratio (%)",[2],19.4 ± 5.4%
same,body weight,[2]; in g (unit assumed),341.6 ± 18.8
